Read-outs that look alike come from different tables or passages of the source. Non-standard residues stand in square brackets, D forms with d. Residues, ends and D or L forms follow the SMILES beside them.
How the values were obtained:
[1] = tested on: P. aeruginosa PAO1; assay: microbe, parasite or virus in culture; settings: supplement CSV
Procedure, shortened: (§1)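 Read-out was visible growth after MTT addition, the MIC being the lowest inhibitory peptide concentration. Bacteria grown to log phase in LB were exposed in MH medium to peptide from 64 μg/mL in twofold dilutions for 15-18h at 37°C.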

[2] = tested on: K. pneumoniae NCTC 418; assay: microbe, parasite or virus in culture; settings: supplement CSV
Procedure, shortened: as §1

[3] = tested on: S. aureus COL (MRSA); assay: microbe, parasite or virus in culture; settings: for MIC S. aureus COL (MRSA): supplement CSV
Procedure, shortened: as §1

[4] = tested on: E. coli W3110; assay: microbe, parasite or virus in culture; settings: for MIC E. coli W3110: supplement CSV
Procedure, shortened: as §1

[5] = tested on: A. baumannii ATCC19606; assay: microbe, parasite or virus in culture
Procedure, shortened: as §1

[6] = tested on: human red blood cells; settings: red cells of human, 6 h
[7] = tested on: P. aeruginosa PA14 4.13 (phoQ); settings: for MIC P. aeruginosa PA14 4.13: supplement CSV
[8] = tested on: P. aeruginosa ZEM9A; assay: microbe, parasite or virus in culture; settings: for MIC P. aeruginosa ZEM9A: supplement CSV
Method: (§2) Minimum inhibitory concentration assay
(§3) Antimicrobial activity was assayed against P. aeruginosa PAO1, K. pneumoniae NCTC418, E. coli W3110, A. baumannii ATCC 19606, methicillin-resistant S. aureus COL (MRSA), and for selected peptides on P. aeruginosa PA14 and the polymyxin-B-resistant derivative PA14 2P4, as well as the clinical isolates ZEM-1A and ZEM9A, K. pneumoniae OXA-48, S. aureus Newman, Enterobacter cloacae and Burkholderia cenocepacia. The minimal inhibitory concentration (MIC) was determined by using broth microdilution method. A colo ny of bacteria was picked and grown in Luria-Bertani (LB) medium overnight at 37°C. For E. coli BW25113 sbmA::kan the medium was supplemented with 25 mg/L of kanamycin. The next day, the culture was then regrown in LB medium to log phase (OD600 = 0.6 to 0.8), which lasted approximately 4 h, and diluted to an OD600 of 0.022 in the desired medium. Stock solutions of 1 mg/mL of the samples were prepared in sterilized milliQ water and diluted to the beginning concentration of 64 μg/mL in 300 μL Mueller Hinton (MH)-medium. The diluted samples were added to first well of 96-well microtiter plate (TPP, untreated, Faust Laborbedarf, AG, Schaffhausen) and diluted serially by ½. Finally, 4 μL of the bacterial suspension was inoculated into the sample solutions (150 μL/well) with a final inoculation of about 5∙10^5 CFU/mL. The plates were then incubated at 37°C for 15-18h. For each assay, sterility (broth only) and growth control (broth with bacterial inoculum, without antibiotics) were checked with two columns in the plate. The next day, 15 μL of 3-(4,5-dimethylthiazol-2-yl)-2,5-diphenyltetrazolium bromide (MTT) was added to each well of the plate, such a way that MIC was defined as the lowest concentration of the peptide that inhibited visible growth of the tested

[9] = tested on: P. aeruginosa PA14; assay: microbe, parasite or virus in culture; settings: for MIC P. aeruginosa PA14: supplement CSV
Method: as §2, §3

[10] = tested on: K. pneumoniae OXA-48; assay: microbe, parasite or virus in culture; settings: for MIC K. pneumoniae OXA-48: supplement CSV
Method: as §2, §3

[11] = tested on: P. aeruginosa ZEM-1A; assay: microbe, parasite or virus in culture; settings: for MIC P. aeruginosa ZEM-1A: supplement CSV
Method: as §2, §3

[12] = tested on: E. cloacae; assay: microbe, parasite or virus in culture; settings: for MIC E. cloacae: supplement CSV
Method: as §2, §3

[13] = tested on: P. aeruginosa PA14 2P4 (pmrB); assay: microbe, parasite or virus in culture; settings: for MIC P. aeruginosa PA14 2P4: supplement CSV
Method: as §2, §3

[14] = tested on: P. aeruginosa PA14 4.18 (pmrB); settings: for MIC P. aeruginosa PA14 4.18: supplement CSV
[15] = polymyxin B resistant strain, 12.5% MHB pH 7.4, 16–20 h at 37 °C
[16] = polymyxin B resistant strain, full MHB pH 7.4, 16–20 h at 37 °C

CC(C)C[C@H](NC(=O)[C@H](CC(C)C)NC(=O)[C@H](CC(C)C)NC(=O)[C@@H](CCCCN)NC(=O)[C@H](CC(C)C)NC(=O)[C@H](CC(C)C)NC(=O)[C@@H](CCCCN)NC(=O)[C@H](CC(C)C)NC(=O)[C@H](CC(C)C)NC(=O)[C@@H](CCCCN)NC(=O)[C@H](N)CCCCN)C(N)=O [ln69, reference compound] (H-[dK][dK]LL[dK]LL[dK]LLL-NH2)
8 µg/mL: MIC K. pneumoniae NCTC418 ([2]; full MH pH 7.4)
4 µg/mL: MIC P. aeruginosa PAO1 ([1]; full MH pH 7.4) | MIC K. pneumoniae NCTC418 ([2]; 12.5% MH pH 7.4) | MIC E. coli, Full MHB ([4]; E. coli W3110, full Müller–Hinton medium, 16–20 h at 37 °C, broth microdilution) | MIC E. coli W3110 ([4]; full MH pH 7.4) | MIC P. aeruginosa PA14 4.13 (phoQ), full MHB [7, 16] | MIC P. aeruginosa PA14 4.13 ([7]; full MH pH 7.4) | MIC K. pneumoniae OXA-48 ([10]; 12.5% MH pH 7.4) | MIC K. pneumoniae OXA-48 ([10]; full MH pH 7.4) | MIC P. aeruginosa ZEM-1A, 12.5% MHB ([11]; clinical isolate, 12.5% MHB pH 7.4, 16–20 h at 37 °C, cells marked c: single measurement (in duplicates)) | MIC P. aeruginosa ZEM-1A ([11]; 12.5% MH pH 7.4) | MIC E. cloacae, full MHB ([12]; full MHB pH 7.4, 16–20 h at 37 °C) | MIC E. cloacae ([12]; full MH pH 7.4) | MIC P. aeruginosa PA14 2P4 (pmrB), 12.5% MHB [13, 15] | MIC P. aeruginosa PA14 2P4 ([13]; 12.5% MH pH 7.4)
2/2 μg/mL: MIC P. aeruginosa PA14, 12.5% MHB ([9]; 12.5% MHB pH 7.4, 16–20 h at 37 °C, two different duplicate MIC determinations) | MIC P. aeruginosa PA14, full MHB ([9]; full MHB pH 7.4, 16–20 h at 37 °C, two different duplicate MIC determinations)
2 µg/mL: MIC P. aeruginosa PAO1 ([1]; 12.5% MH pH 7.4) | MIC S. aureus, 12.5% MHB ([3]; S. aureus COL (MRSA), 12.5% Müller–Hinton medium, 16–20 h at 37 °C) | MIC S. aureus COL (MRSA) ([3]; 12.5% MH pH 7.4) | MIC E. coli, 12.5% MHB ([4]; E. coli W3110, 12.5% Müller–Hinton medium, 16–20 h at 37 °C, broth microdilution) | MIC E. coli W3110 ([4]; 12.5% MH pH 7.4) | MIC A. baumannii, 12.5% MHB ([5]; A. baumannii ATCC19606, 12.5% Müller–Hinton medium, 16–20 h at 37 °C) | MIC A. baumannii ATCC19606 ([5]; supplement CSV, 12.5% MH pH 7.4) | MIC P. aeruginosa PA14 4.13 (phoQ), 12.5% MHB [7, 15] | MIC P. aeruginosa PA14 4.13 ([7]; 12.5% MH pH 7.4) | MIC P. aeruginosa ZEM9A ([8]; 12.5% MH pH 7.4) | MIC P. aeruginosa PA14 ([9]; 12.5% MH pH 7.4) | MIC P. aeruginosa PA14 ([9]; full MH pH 7.4) | MIC E. cloacae, 12.5% MHB ([12]; 12.5% MHB pH 7.4, 16–20 h at 37 °C) | MIC E. cloacae ([12]; 12.5% MH pH 7.4) | MIC P. aeruginosa PA14 4.18 (pmrB), 12.5% MHB [14, 15] | MIC P. aeruginosa PA14 4.18 ([14]; 12.5% MH pH 7.4)
2 to 4 µg/mL: MIC A. baumannii, Full MHB ([5]; A. baumannii ATCC19606, full Müller–Hinton medium, 16–20 h at 37 °C)
4 to 8 µg/mL: MIC P. aeruginosa ZEM9A, full MHB ([8]; clinical isolate, full MHB pH 7.4, 16–20 h at 37 °C) | MIC P. aeruginosa ZEM9A ([8]; full MH pH 7.4)
1 µg/mL: MIC P. aeruginosa ZEM-1A, full MHB ([11]; clinical isolate, full MHB pH 7.4, 16–20 h at 37 °C, cells marked c: single measurement (in duplicates)) | MIC P. aeruginosa ZEM-1A ([11]; full MH pH 7.4)
1000 µg/mL: MHC human red blood cells [6]
16 µg/mL: MIC S. aureus, Full MHB ([3]; S. aureus COL (MRSA), full Müller–Hinton medium, 16–20 h at 37 °C) | MIC S. aureus COL (MRSA) ([3]; full MH pH 7.4) | MIC P. aeruginosa PA14 4.18 (pmrB), full MHB [14, 16] | MIC P. aeruginosa PA14 4.18 ([14]; full MH pH 7.4)
32 µg/mL: MIC P. aeruginosa PA14 2P4 (pmrB), full MHB [13, 16] | MIC P. aeruginosa PA14 2P4 ([13]; full MH pH 7.4)
4/4 μg/mL: MIC K. pneumoniae OXA-48, 12.5% MHB ([10]; carbapenem-resistant, 12.5% MHB pH 7.4, 16–20 h at 37 °C) | MIC K. pneumoniae OXA-48, full MHB ([10]; carbapenem-resistant, full MHB pH 7.4, 16–20 h at 37 °C)
